Test results: patent US6906205B2, “Spiro and dispiro 1,2,4-trioxolane antimalarials” (Medicines for Malaria Venture MMV, priority 2002, dated 2005)
Values after ≈ are worked out from the molar mass of the structure shown.

What follows are compounds tested on P. falciparum K1 strain (Thailand resistant to chloroquine) (assay: semiautomated microdilution assay, [3H]-hypoxanthine incorporation, K1 strain). Conditions: K1 strain, 72 h incubation.
Type: cell-based, Plasmodium falciparum
Method in brief: (§1)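 IC50 values come from logit regression of semiautomated microdilution data obtained on intraerythrocytic parasites drawn from asynchronous cultures.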

Point of comparison: `COC(=O)c1ccc(C2(c3ccccc3)OOC3(O2)C2CC4CC(C2)CC3C4)cc1` (centres unmarked) [OZ138], “IC50 (ng/ml) K1” value 10 ng/mL (≈ 24.6 nM). Against it:
- CCOC(=O)c1ccc(C2(c3ccc(C(=O)OCC)cc3)OOC3(O2)C2CC4CC(C2)CC3C4)cc1 (centres unmarked) [OZ125] — 6.8-fold higher, 68 ng/mL (≈ 138 nM)
- O=C(OC[C@H]1CC[C@]2(CC1)OOC1(O2)C2CC3CC(C2)CC1C3)n1ccnc1 (some centres unmarked) [OZ141] — 5.9-fold lower, 1.7 ng/mL (≈ 4.38 nM)
- O=CN1CCN(C(=O)C[C@H]2CC[C@]3(CC2)OO[C@]2(O3)C3CC4CC(C3)CC2C4)CC1 [OZ294] — 26-fold lower, 0.39 ng/mL (≈ 0.932 nM)
- CN(C)C(=O)NC[C@H]1CC[C@]2(CC1)OOC1(O2)C2CC3CC(C2)CC1C3 (some centres unmarked) [OZ266] — 9.1-fold lower, 1.1 ng/mL (≈ 3.02 nM)

For `O=C(O)c1cccc([C@H]2CC[C@]3(CC2)OOC2(O3)C3CC4CC(C3)CC2C4)c1` (some centres unmarked) [OZ198], the “IC50 (ng/ml) K1” value was >10/>10 ng/ml.

Same assay, conditions: Plasmodium falciparum; K1 strain, 72 h incubation; read-out: IC50 (ng/ml) K1

In the case of `CCOC(=O)CC1CCC2(CC1)OOC1(O2)C2CC3CC(C2)CC1C3` (centres unmarked) [OZ61], the IC50 is reported as 0.52 ng/mL (≈ 1.48 nM).

What follows are compounds tested on P. falciparum NF54 strain (sensitive to standard antimalarials) (assay: semiautomated microdilution assay, [3H]-hypoxanthine incorporation, NF54 strain). Conditions: NF54 strain, 72 h incubation.
Type: cell-based, Plasmodium falciparum
Method in brief: as §1

In the case of `CCOC(=O)c1ccc(C2(c3ccc(C(=O)OCC)cc3)OOC3(O2)C2CC4CC(C2)CC3C4)cc1` (centres unmarked) [OZ125], the “IC50 (ng/ml) NF54” value is reported as over 100 ng/mL.
`O=C(O)c1cccc([C@H]2CC[C@]3(CC2)OOC2(O3)C3CC4CC(C3)CC2C4)c1` (some centres unmarked) [OZ198] was tested, and the “IC50 (ng/ml) NF54” value was >10/>10 ng/ml.

Point of comparison: `O=CN1CCN(C(=O)C[C@H]2CC[C@]3(CC2)OO[C@]2(O3)C3CC4CC(C3)CC2C4)CC1` [OZ294], “IC50 (ng/ml) NF54” value 0.63 ng/mL (≈ 1.51 nM). Against it:
- O=C(OC[C@H]1CC[C@]2(CC1)OOC1(O2)C2CC3CC(C2)CC1C3)n1ccnc1 (some centres unmarked) [OZ141] — 3-fold higher, 1.9 ng/mL (≈ 4.89 nM)
- COC(=O)c1ccc(C2(c3ccccc3)OOC3(O2)C2CC4CC(C2)CC3C4)cc1 (centres unmarked) [OZ138] — 30-fold higher, 19 ng/mL (≈ 46.7 nM)
- CN(C)C(=O)NC[C@H]1CC[C@]2(CC1)OOC1(O2)C2CC3CC(C2)CC1C3 (some centres unmarked) [OZ266] — 2.4-fold higher, 1.5 ng/mL (≈ 4.12 nM)

Same assay, conditions: Plasmodium falciparum; NF54 strain, 72 h incubation; read-out: IC50 (ng/ml) NF54

For `CCOC(=O)CC1CCC2(CC1)OOC1(O2)C2CC3CC(C2)CC1C3` (centres unmarked) [OZ61], the IC50 was 0.53 ng/mL (≈ 1.51 nM).

These compounds were tested on ANKA strain of P. berghei (assay: single dose STI in vivo screen in infected mice). Conditions: percent reduction in parasitemia day 3 post-infection; single 3 mg/kg po in SSV.
Parameters: species or system Plasmodium berghei
Method in brief: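 Groups of 3-5 Moro SPF or NMRI mice infected with the ANKA strain of P. berghei received a single dose of trioxolane on day one post-infection. The compound was given in 3% ethanol and 7% Tween 80 or in SSV (0.5% w/v CMC, 0.5% v/v benzyl alcohol, 0.4% v/v Tween 80, 0.9% w/v sodium chloride in water). Antimalarial activity was scored as percent reduction in parasitemia on day three and as survival time versus untreated controls. Survival to day 30 counted as cure.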

For `O=CN1CCN(C(=O)C[C@H]2CC[C@]3(CC2)OO[C@]2(O3)C3CC4CC(C3)CC2C4)CC1` [OZ294], the “Activity (%) 3 mg/kg SSV po” value was 70%.

Same assay, conditions: percent reduction in parasitemia day 3 post-infection; single 10 mg/kg po in 3% ethanol and 7% Tween 80; mice

Point of comparison: `CCOC(=O)CC1CCC2(CC1)OOC1(O2)C2CC3CC(C2)CC1C3` (centres unmarked) [OZ61], “Activity (%) po” value 91%. Against it:
- CCOC(=O)c1ccc(C2(c3ccc(C(=O)OCC)cc3)OOC3(O2)C2CC4CC(C2)CC3C4)cc1 (centres unmarked) [OZ125] — lower, 8%
- O=C(OC[C@H]1CC[C@]2(CC1)OOC1(O2)C2CC3CC(C2)CC1C3)n1ccnc1 (some centres unmarked) [OZ141] — higher, 98%
- COC(=O)c1ccc(C2(c3ccccc3)OOC3(O2)C2CC4CC(C2)CC3C4)cc1 (centres unmarked) [OZ138] — lower, 0%
- O=C(O)c1cccc([C@H]2CC[C@]3(CC2)OOC2(O3)C3CC4CC(C3)CC2C4)c1 (some centres unmarked) [OZ198] — lower, 4%
- CN(C)C(=O)NC[C@H]1CC[C@]2(CC1)OOC1(O2)C2CC3CC(C2)CC1C3 (some centres unmarked) [OZ266] — higher, 99%

Same assay, conditions: percent reduction in parasitemia day 3 post-infection; single 10 mg/kg sc in 3% ethanol and 7% Tween 80; mice

Point of comparison: `COC(=O)c1ccc(C2(c3ccccc3)OOC3(O2)C2CC4CC(C2)CC3C4)cc1` (centres unmarked) [OZ138], “Activity (%) sc” value 7%. Against it:
- CCOC(=O)CC1CCC2(CC1)OOC1(O2)C2CC3CC(C2)CC1C3 (centres unmarked) [OZ61] — higher, 96%
- CCOC(=O)c1ccc(C2(c3ccc(C(=O)OCC)cc3)OOC3(O2)C2CC4CC(C2)CC3C4)cc1 (centres unmarked) [OZ125] — lower, 0%
- O=C(OC[C@H]1CC[C@]2(CC1)OOC1(O2)C2CC3CC(C2)CC1C3)n1ccnc1 (some centres unmarked) [OZ141] — higher, 99.89%
- O=C(O)c1cccc([C@H]2CC[C@]3(CC2)OOC2(O3)C3CC4CC(C3)CC2C4)c1 (some centres unmarked) [OZ198] — lower, 6%
- CN(C)C(=O)NC[C@H]1CC[C@]2(CC1)OOC1(O2)C2CC3CC(C2)CC1C3 (some centres unmarked) [OZ266] — higher, 99.75%

Same assay, conditions: percent reduction in parasitemia day 3 post-infection; single po dose in standard suspending vehicle (SSV); mice

Point of comparison: `CN(C)C(=O)NC[C@H]1CC[C@]2(CC1)OOC1(O2)C2CC3CC(C2)CC1C3` (some centres unmarked) [OZ266], “Activity (%) SSVpo” value 99.39%. Against it:
- CCOC(=O)c1ccc(C2(c3ccc(C(=O)OCC)cc3)OOC3(O2)C2CC4CC(C2)CC3C4)cc1 (centres unmarked) [OZ125] — lower, 0%
- O=C(OC[C@H]1CC[C@]2(CC1)OOC1(O2)C2CC3CC(C2)CC1C3)n1ccnc1 (some centres unmarked) [OZ141] — lower, 97%
- COC(=O)c1ccc(C2(c3ccccc3)OOC3(O2)C2CC4CC(C2)CC3C4)cc1 (centres unmarked) [OZ138] — lower, 5%
- O=C(O)c1cccc([C@H]2CC[C@]3(CC2)OOC2(O3)C3CC4CC(C3)CC2C4)c1 (some centres unmarked) [OZ198] — lower, 6%

Same assay, conditions: single 10 mg/kg po in 3% ethanol and 7% Tween 80; untreated control 5.6 ± 0.3

Point of comparison: `CCOC(=O)c1ccc(C2(c3ccc(C(=O)OCC)cc3)OOC3(O2)C2CC4CC(C2)CC3C4)cc1` (centres unmarked) [OZ125], “Survival (days) po” value 5.3 days. Against it:
- CCOC(=O)CC1CCC2(CC1)OOC1(O2)C2CC3CC(C2)CC1C3 (centres unmarked) [OZ61] — higher, 7.0 days
- O=C(OC[C@H]1CC[C@]2(CC1)OOC1(O2)C2CC3CC(C2)CC1C3)n1ccnc1 (some centres unmarked) [OZ141] — higher, 8.0 days
- COC(=O)c1ccc(C2(c3ccccc3)OOC3(O2)C2CC4CC(C2)CC3C4)cc1 (centres unmarked) [OZ138] — higher, 5.7 days
- O=C(O)c1cccc([C@H]2CC[C@]3(CC2)OOC2(O3)C3CC4CC(C3)CC2C4)c1 (some centres unmarked) [OZ198] — higher, 5.7 days
- CN(C)C(=O)NC[C@H]1CC[C@]2(CC1)OOC1(O2)C2CC3CC(C2)CC1C3 (some centres unmarked) [OZ266] — higher, 13.7 days

Same assay, conditions: single 10 mg/kg po in SSV

For `O=CN1CCN(C(=O)C[C@H]2CC[C@]3(CC2)OO[C@]2(O3)C3CC4CC(C3)CC2C4)CC1` [OZ294], the “Survival (days) 10 mg/kg SSV po” value was 8.6 days.

Same assay, conditions: single 10 mg/kg sc in 3% ethanol and 7% Tween 80; untreated control 5.6 ± 0.3

Point of comparison: `CCOC(=O)CC1CCC2(CC1)OOC1(O2)C2CC3CC(C2)CC1C3` (centres unmarked) [OZ61], “Survival (days) sc” value 7.3 days. Against it:
- CCOC(=O)c1ccc(C2(c3ccc(C(=O)OCC)cc3)OOC3(O2)C2CC4CC(C2)CC3C4)cc1 (centres unmarked) [OZ125] — lower, 6.0 days
- O=C(OC[C@H]1CC[C@]2(CC1)OOC1(O2)C2CC3CC(C2)CC1C3)n1ccnc1 (some centres unmarked) [OZ141] — higher, 8.7 days
- COC(=O)c1ccc(C2(c3ccccc3)OOC3(O2)C2CC4CC(C2)CC3C4)cc1 (centres unmarked) [OZ138] — lower, 6.3 days
- O=C(O)c1cccc([C@H]2CC[C@]3(CC2)OOC2(O3)C3CC4CC(C3)CC2C4)c1 (some centres unmarked) [OZ198] — lower, 5.7 days
- CN(C)C(=O)NC[C@H]1CC[C@]2(CC1)OOC1(O2)C2CC3CC(C2)CC1C3 (some centres unmarked) [OZ266] — higher, 11.7 days

Same assay, conditions: single po dose in SSV; untreated control 5.6 ± 0.3

Point of comparison: `O=C(O)c1cccc([C@H]2CC[C@]3(CC2)OOC2(O3)C3CC4CC(C3)CC2C4)c1` (some centres unmarked) [OZ198], “Survival (days) SSVpo” value 6.0 days. Against it:
- CCOC(=O)c1ccc(C2(c3ccc(C(=O)OCC)cc3)OOC3(O2)C2CC4CC(C2)CC3C4)cc1 (centres unmarked) [OZ125] — lower, 5.7 days
- O=C(OC[C@H]1CC[C@]2(CC1)OOC1(O2)C2CC3CC(C2)CC1C3)n1ccnc1 (some centres unmarked) [OZ141] — higher, 8.0 days
- COC(=O)c1ccc(C2(c3ccccc3)OOC3(O2)C2CC4CC(C2)CC3C4)cc1 (centres unmarked) [OZ138] — higher, 6.3 days
- CN(C)C(=O)NC[C@H]1CC[C@]2(CC1)OOC1(O2)C2CC3CC(C2)CC1C3 (some centres unmarked) [OZ266] — higher, 11.7 days
